Data on one molecule can be found in patent US20140100286A1, “COMPOSITION FOR PREVENTING OR TREATING INFLAMMATORY DISEASES COMPRISING VERATRIC ACID AS EFFECTIVE COMPONENT” (Pukyong National University Industry-University Cooperation …, priority 2012, published 2014).

Assay type in all cases: cell-based, murine
The subject of data set [1] is macrophage RAW264.7 cells. Kind of data set: Cytotoxicity of veratric acid, WST-1 cell viability. Particulars: up to 200 μM, 3 h pretreatment then 100 ng/ml LPS 24 h. How it is done:
Cell lines used to evaluate cytotoxicity of a veratric acid were macrophage RAW264.7, human embryonic kidney (HEK) 293, and human keratinocyte (HaCaT) cells. For a cytotoxicity experiment, the cell lines were first incubated in a culture solution of DMEM containing 10% fetal bovine serum (FBS) and 1% penicillin (100 U/ml)/streptomycin (100 U/ml) under a condition of 5% CO2 at a temperature of 37° C. Then, the incubated cells were seeded in a 96-well plate at 1×10^5 cells/well. Each of the cells was treated at different concentrations (0, 50, 100, 150 and 200 μM) of a veratric acid and incubated for 3 hours. After the incubation, the cells were stimulated with 100 ng/ml LPS contained in a culture medium for 24 hours. Thereafter, the culture solution was removed, and then, the cells were treated with a solution of WST-1® (Daeil Lab service, Korea) and further incubated for 3 hours. An optical density of the culture solution was measured at 460 nm by using an ELIZA analyzer to analyze cell viability.
For orientation: Tetrazolium assays rely on reduction of a dye to a coloured formazan, in cell work by metabolically active cells.

For data set [2], the system named is nitric oxide production in macrophage RAW264.7 cells. Kind of data set: Nitric oxide (NO) production, Griess reagent. Particulars: LPS 100 ng/ml in combination with veratric acid 50-200 μM, inhibition in proportion to concentration (FIG. 3B). How it is done: In order to confirm whether or not the veratric acid has an activity of inhibiting production of nitric oxide that causes inflammation, the following experiment was performed. The prepared macrophage RAW264.7 cells were seeded in a 96-well plate at 1×10^5 cells/well. Each of the cells was treated at different concentrations (0, 50, 100, 150 and 200 μM) of the veratric acid and incubated for 3 hours. The cells were incubated in a culture medium containing 100 ng/ml LPS for 24 hours. Thereafter, a culture solution was acquired. After the culture solution was allowed to react with a Griess reagent, a production level of nitric oxide induced by the LPS was measured at 540 nm by using the ELIZA analyzer (BD PharMingen, USA).

Data set [3] deals with inducible nitric oxide synthase (iNOS). Nature of the data set: iNOS gene and protein expression, RT-PCR and Western blot. Particulars: LPS-stimulated RAW264.7 cells, concentration dependent (FIG. 4). The protocol: Thus, the present inventors performed an RT-PCR and a Western blot analysis as follows in order to confirm whether or not the veratric acid's mechanism of inhibiting nitric oxide production was operated by regulating expression and protein activity of iNOS as an inducible nitric oxide synthase involved in nitric oxide production.
The prepared murine macrophage RAW264.7 cells treated with the LPS in combination with the veratric acid were used. RNA was extracted and separated from the incubated cells by using 2-mercaptoethanol (Sigma, USA). An RT-PCR was performed by using primers listed in Table 1 with the extracted RNA as a template. Then, after electrophoresis, an expression level of a gene was checked with ultraviolet light.
The prepared murine macrophage cells treated with the LPS in combination with the veratric acid were collected and lysed by using a lysis buffer {50 mM Tris-Cl [pH7.5], 150 mM NaCl, 1 mM DTT, 0.5% NP-40, 1% Triton X-100, 1% deoxycholate, 0.1% SDS and a cocktail of proteinase inhibitors [1 mM PMSF, 1 mM EDTA, 11 μM aprotinin, 11 μM leupeptin, and 11 μM pepstatin A (Intron Biotechnology, Gyeonggi, Korea)]}. Protein samples were electrophoresed by 12% SDS-PAGE and then electrically transferred to a nitrocellulose membrane. Thereafter, the protein samples were allowed to react with primary antibodies capable of recognizing the iNOS. […]

Data set [4] deals with cyclooxygenase-2 (COX-2). Kind of data set: COX-2 gene and protein expression, RT-PCR and Western blot. Particulars: LPS-stimulated RAW264.7 cells. For orientation: A western blot detects proteins with antibodies after separation by electrophoresis.
For data set [5], the system named is IL-1β. Kind of data set: IL-1β protein expression, Western blot. The following applies: LPS-stimulated RAW264.7 cells, Western blot (FIG. 6).
The subject of data set [6] is IL-6. Kind of data set: IL-6 protein expression, Western blot. The following applies: LPS-stimulated RAW264.7 cells, Western blot (FIG. 6).
In data set [7] the test system is TNF-α. Kind of data set: TNF-α protein expression, Western blot. The following applies: LPS-stimulated RAW264.7 cells, Western blot (FIG. 6).
Data set [8] deals with IFN-γ. Nature of the data set: IFN-γ protein expression, Western blot. Particulars: LPS-stimulated RAW264.7 cells, Western blot (FIG. 6).
In data set [9] the test system is STAT-1. Kind of data set: Phosphorylation of STAT-1, Western blot. Particulars: LPS-stimulated macrophage cells, concentration dependent (FIG. 7). The protocol:
(§1) The prepared murine macrophage cells treated with the LPS in combination with the veratric acid were collected and lysed by using a lysis buffer {50 mM Tris-Cl [pH7.5], 150 mM NaCl, 1 mM DTT, 0.5% NP-40, 1% Triton X-100, 1% deoxycholate, 0.1% SDS and a cocktail of proteinase inhibitors [1 mM PMSF, 1 mM EDTA, 11 μM aprotinin, 11 μM leupeptin, and 11 μM pepstatin A (Intron Biotechnology, Gyeonggi, Korea)]}. Protein samples were electrophoresed by 12% SDS-PAGE and then electrically transferred to a nitrocellulose membrane. Thereafter, the protein samples were allowed to react with primary antibodies capable of recognizing the iNOS. After the membrane was washed and then allowed to react with horseradish peroxidase-linked […] or […] (Cell Signaling Technology Inc., USA). Then, signals were checked by using an enhanced chemiluminescent (ECL) detection system (Pierce, USA).
It is known that secreted IFN-γ promotes phosphorylation of STAT-1 and induces transcription of iNOS, and an activity of the iNOS causes production of nitric oxide and induces inflammation. Therefore, protein expression levels of STAT-1 and phosphorylated STAT-1 were checked through a Western blot analysis performed in the same manner as Example 3 in order to confirm an effect of the veratric acid, which reduced the protein level of the IFN-γ in Example 5, on phosphorylation of STAT-1.

The test system of data set [10] is NF-κB. Nature of the data set: Phosphorylation of NF-κB, Western blot. Particulars: LPS-stimulated macrophage cells, reduction in proportion to concentration (FIGS. 8A, 8B). The protocol:
as §1
(§2) An NF-κB is a transcription factor and when the NF-κB is activated by phosphorylated IκBα, it is moved into a nucleus and bound to a promoter site such that target molecules can be transcribed. Thus, the present inventors performed a Western blot analysis and an immunofluorescent microscopy as follows in order to confirm whether or not the veratric acid affected protein levels of the NF-κB and the IκBα. […]

Data set [11] has as its system IκBα. Nature of the data set: Phosphorylation of IκBα, Western blot. Particulars: LPS-stimulated macrophage cells, Western blot (FIGS. 8A, 8B). How it is done:
as §1, §2

Data set [12] deals with NF-κB. Nature of the data set: Intracellular distribution of NF-κB, immunofluorescent microscopy. The following applies: 100 μM veratric acid 1 hour, LPS 12 hours, immunofluorescent microscopy (FIGS. 8C, 8D). The text has this:
An NF-κB is a transcription factor and when the NF-κB is activated by phosphorylated IκBα, it is moved into a nucleus and bound to a promoter site such that target molecules can be transcribed. Thus, the present inventors performed a Western blot analysis and an immunofluorescent microscopy as follows in order to confirm whether or not the veratric acid affected protein levels of the NF-κB and the IκBα. That is, protein expression levels of the NF-κB and the IκBα in the LPS-stimulated macrophage cells were checked through the Western blot analysis performed in the same manner as Example 3, and in the immunofluorescent microscopy, after 100 μM veratric acid was treated for 1 hour, LPS was incubated for 12 hours, and 4,6-diamidino-2-phenylindole (DAPI) was treated at room temperature for 15 minutes, the cells were immobilized with 4% formaldehyde and then distribution of the NF-κB in the cells was checked visually.

The subject of data set [13] is JNK. Kind of data set: Phosphorylation of JNK, Western blot. The following applies: LPS-stimulated macrophage cells, Western blot (FIG. 9). The protocol:
as §1
(§3) Protein expression levels of JNK, p38, and ERK1/2 in the LPS-stimulated macrophage cells were checked through a Western blot analysis performed in the same manner as Example 3 in order to confirm whether or not the veratric acid affected an activity of MAPK as a superordinate signaling system that produced pro-inflammatory cytokines.

Data set [14] concerns p38. Kind of data set: Phosphorylation of p38, Western blot. The following applies: LPS-stimulated macrophage cells, Western blot (FIG. 9); stronger effect than on JNK, ERK1/2. How it is done:
as §1, §3

Data set [15] relates to ERK1/2. Kind of data set: Phosphorylation of ERK1/2, Western blot. Particulars: LPS-stimulated macrophage cells, Western blot (FIG. 9). The protocol: as §1, §3
For data set [16], the system named is GSK-3β. Nature of the data set: Phosphorylation of GSK-3β, Western blot. Particulars: LPS-stimulated macrophage cells, concentration dependent (FIG. 10). The protocol:
as §1
A protein expression level of GSK-3β in the LPS-stimulated macrophage cells was checked through a Western blot analysis performed in the same manner as Example 3 in order to confirm whether or not the veratric acid affected phosphorylation of the GSK-3β as a superordinate signaling system that caused inflammatory reactions.

In data set [17] the test system is c-Raf. Kind of data set: Phosphorylation of c-Raf at Ser259 and Ser338, Western blot. The following applies: LPS-stimulated macrophage cells, Western blot (FIG. 11). The protocol:
as §1
If c-Raf (RAF proto-oncogene serine/threonine-protein kinase) is phosphorylated at Ser^338, the c-Raf induces expression of iNOS. Thus, the present inventors checked a protein level of the c-Raf in the LPS-stimulated macrophage cells and a phosphorylated protein level at Ser^259 and Ser^338 of the c-Raf through a Western blot analysis performed in the same manner as Example 3 in order to confirm whether or not the veratric acid affected the protein level of the c-Raf.

Take `COc1ccc(C(=O)O)cc1OC` [veratric acid, 3,4-Dimethoxybenzoic acid]: the “cytotoxicity (cell viability)” value in data set [1] was “did not show cytotoxicity”. The “excessive production of nitric oxide” value in data set [2] was “inhibited”. Besides, in [3] (RT-PCR), the “gene expression of iNOS” value is “decreased or inhibited strongly”. In addition, in data set [3] (Western blot), the “protein expression of iNOS” value is recorded as “decreased or inhibited strongly”. Also, the “gene expression of COX-2” value in [4] (RT-PCR (FIG. 5)) is “did not affect”. Also, the “protein expression of COX-2” value in data set [4] (Western blot (FIG. 5)) is given as “did not affect”. The “protein expression level of IL-1β” value in data set [5] is given as “reduced”. In data set [6], the “protein expression level of IL-6” value is “did not affect”. The “protein expression level of TNF-α” value in data set [7] was “did not affect”. The “protein expression level of IFN-γ” value in data set [8] is on record as “reduced”. In addition, in data set [9], the “phosphorylation of the STAT-1” value is on record as “reduced”. Besides, the “protein expression of the phosphorylated NF-κB” value in data set [10] is “remarkably reduced”. Further, in [11], the “phosphorylated IκBα” value is on record as “reduced”. The “movement of the NF-κB into the nucleus” value in [12] is “inhibited”. In addition, in data set [13], the “phosphorylation of the JNK” value is given as “inhibited”. In addition, the “phosphorylation of the p38” value in data set [14] is reported as “inhibited”. For the same molecule, the “phosphorylation of the ERK1/2” value in data set [15] was “inhibited”. The “phosphorylation of the GSK-3β” value in data set [16] is “remarkably inhibited”. In addition, in data set [17], the “phosphorylation at Ser259 of the c-Raf” value is recorded as “did not affect” and the “phosphorylation at Ser338 of the c-Raf” value was “inhibited”.
